# Experimental data from US6429202B1, “Phospholipid complexes of proanthocyanidin A2 as antiatherosclerotic agents” (Indena S.p.A., priority 1998, dated 2002).
# Tested on: atherosclerotic lesions on thoracic and abdominal aorta
# Assay: Atherosclerotic lesions in rabbits fed a hypercholesterolemic diet
# Assay type: in vivo, New Zealand rabbits
# Settings: hypercholesterolemic diet (0.2% w/w cholesterol), substance in diet, 8 week-treatment, aorta stained with Sudan IV
# From the text: The complexes of the invention dose-dependently prevent or reduce the formation of, atherosclerotic plaques. The activity was evidenced in rabbits fed with a hypercholesterolemic diet so as to induce atherosclerotic lesions similar to the human ones at the vasal level, particularly at the aortal arch, ventral aorta, carotids and cerebral vessels. In said model, the above mentioned phospholipid complexes change the macro- and microscopical vascular condition reducing, compared with untreated animals, both the number and the severity of the atheromatous plagues, with surprising vascular-tissutal benefit.
# 32 New Zealand rabbits were divided in 4 groups of 8 animals each, and treated as follows:
# Group 1): Control, normal diet
# Group 2): Hypercholesterolemic diet (0.2% w/w cholesterol)
# Group 3): Hypercholesterolemic diet+phospholipid complex of proanthocyanidin A2 extract (0.2% cholesterol+2% w/w complex of Example 1).
# Group 4): Hypercholesterolemic diet+proanthocyanidin A2 extract (0.2% cholesterol+amount of proanthocyanidin A2 equivalent to that present in 2% w/w of the complex of Example 1). After 8 week-treatment, during which cholesterol, LDL/VLDL, HDL and triglycerids levels were measured, the animals were killed.
# The number, size and distribution of the atherosclerotic lesions on thoracic and abdominal aorta were evaluated. […]
smiles,measurement,value
Oc1cc(O)c2c(c1)O[C@@]1(c3ccc(O)c(O)c3)Oc3cc(O)c4c(c3C2[C@H]1O)OC(c1ccc(O)c(O)c1)[C@H](O)C4 (stereo partly shown) [proanthocyanidin A2],area percent of the lesion,30%
